From article PMC4627656, “Combining Metabolite-Based Pharmacophores with Bayesian Machine Learning Models for Mycobacterium tuberculosis Drug Discovery” (PLoS ONE, 2015)
Converted amounts (≈) assume the structure as drawn.

Columns and labels:
Type in all cases: cell-based
[1] = tested on: clinical MDR-TB strain 31; assay: AlamarBlue MIC (absorbance), strain panel: 31; conditions: Mycobacterium tuberculosis, read-out: MIC, strain 31
[2] = tested on: clinical MDR-TB strain 116; assay: AlamarBlue MIC (absorbance), strain panel: 116; conditions: Mycobacterium tuberculosis, read-out: MIC, strain 116
[3] = tested on: H37Rv (laboratory strain); assay: AlamarBlue MIC (absorbance), strain panel: H37Rv; conditions: Mycobacterium tuberculosis, drug resistance: None
clinical strain 210 = assay: AlamarBlue MIC (absorbance), strain panel: 210; conditions: Mycobacterium tuberculosis, drug resistance: None
[4] = tested on: clinical MDR-TB strain 36; assay: AlamarBlue MIC (absorbance), strain panel: 36; conditions: Mycobacterium tuberculosis, read-out: MIC, strain 36
[5] = tested on: clinical MDR-TB strain 91; assay: AlamarBlue MIC (absorbance), strain panel: 91; conditions: Mycobacterium tuberculosis, read-out: MIC, strain 91

CCCCC(=O)c1c(C)[n+]([O-])c2ccc([N+](=O)[O-])cc2[n+]1[O-] [SRI50]
MIC [1]: 0.31 µg/mL (≈ 1.02 µM) | MIC [2]: 0.16 µg/mL (≈ 0.524 µM) | MIC [3]: 0.16 µg/mL (≈ 0.524 µM) | MIC (clinical strain 210): 0.31 µg/mL (≈ 1.02 µM) | MIC [4]: 0.16 µg/mL (≈ 0.524 µM) | MIC [5]: 0.16 µg/mL (≈ 0.524 µM)
